Results on 14 compounds are retold here after patent US20250145598A1, “ACID CERAMIDASE INHIBITORS AND USES THEREOF” (The Regents of the University of California, priority 2021, published 2025).

SMILES strings stand for the structures.

The test concerns the target T1, Acid ceramidase (Homo sapiens, UniProt Q13510).
T1 sequence (Q13510 22-395): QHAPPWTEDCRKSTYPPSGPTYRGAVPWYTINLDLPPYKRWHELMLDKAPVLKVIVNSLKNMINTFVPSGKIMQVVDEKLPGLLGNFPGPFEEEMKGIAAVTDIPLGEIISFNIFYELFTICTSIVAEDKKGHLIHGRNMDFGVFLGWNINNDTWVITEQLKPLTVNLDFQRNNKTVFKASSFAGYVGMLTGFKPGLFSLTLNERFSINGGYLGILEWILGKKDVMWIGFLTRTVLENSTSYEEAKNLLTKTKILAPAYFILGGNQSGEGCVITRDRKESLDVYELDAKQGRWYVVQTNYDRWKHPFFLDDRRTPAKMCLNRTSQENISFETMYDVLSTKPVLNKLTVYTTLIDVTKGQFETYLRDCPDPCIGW
As to the kind of experiment: Acid ceramidase assay (AC in vitro IC50). The class given is biochemical. As to conditions: Acid ceramidase assay data of example compounds.
As to `CS(=O)(=O)c1ccc(CNC(=O)n2cnc(-c3ccc(OCc4ccc(S(C)(=O)=O)cc4)cc3)c2)cc1` [AC2020601-0303, N-(4-(methylsulfonyl)benzyl)-4-(4-((4-(methylsulfonyl)benzyl)oxy)phenyl)-1H-imidazole-1-carboxamide], the IC50 fell in the range of 301 to 3000 nM.

In turn, `CS(=O)(=O)Nc1ccc(COc2ccc(-c3cn(C(=O)NCCCCc4ccccc4)cn3)cc2)cc1` [AC2020601-0306, 4-(4-((4-(methylsulfonamido)benzyl)oxy)phenyl)-N-(4-phenylbutyl)-1H-imidazole-1-carboxamide] gave an IC50 of less than 300 nM.

Compound `CS(=O)(=O)c1ccc(COc2ccc(-c3cn(C(=O)NCC4CN(c5ccccc5)C4)cn3)cc2)cc1` [AC2020601-0321, 4-(4-((4-(methylsulfonyl)benzyl)oxy)phenyl)-N-((1-phenylazetidin-3-yl)methyl)-1H-imidazole-1-carboxamide] displayed an IC50 of less than 300 nM.

`O=C(NCCCCc1ccccc1)n1cnc(-c2ccc(OCc3ccncc3)cc2)c1` [AC2020601-0323, N-(4-phenylbutyl)-4-(4-(pyridin-4-ylmethoxy)phenyl)-1H-imidazole-1-carboxamide] had an IC50 of less than 300 nM.

`NS(=O)(=O)c1ccc(COc2ccc(-c3cn(C(=O)NCCCOc4ccccc4)cn3)cc2)cc1` [AC2020601-0324]: the half-inhibitory concentration (IC50) was less than 300 nM.

Turning to `CS(=O)(=O)Nc1ccc(COc2ccc(-c3cn(C(=O)NCCCOc4ccccc4)cn3)cc2)cc1` [AC2020601-0327, 4-(4-((4-(methylsulfonamido)benzyl)oxy)phenyl)-N-(3-phenoxypropyl)-1H-imidazole-1-carboxamide], the IC50 is less than 300 nM.

The compound `O=C(Nc1ccc(COc2ccc(-c3cn(C(=O)NCCCOc4ccccc4)cn3)cc2)cc1)C1CC1` [AC2020601-0328, 4-(4-((4-(cyclopropanecarboxamido)benzyl)oxy)phenyl)-N-(3-phenoxypropyl)-1H-imidazole-1-carboxamide] showed an IC50 of less than 300 nM.

Compound `CNS(=O)(=O)c1ccc(COc2ccc(-c3cn(C(=O)NCCCOc4ccccc4)cn3)cc2)cc1` [AC2020601-0339, 4-(4-((4-(N-methylsulfamoyl)benzyl)oxy)phenyl)-N-(3-phenoxypropyl)-1H-imidazole-1-carboxamide] yielded an IC50 of less than 300 nM.

`CN1CCN(S(=O)(=O)c2ccc(COc3ccc(-c4cn(C(=O)NCCCOc5ccccc5)cn4)cc3)cc2)CC1` [AC2020601-0342, 4-(4-((4-((4-methylpiperazin-1-yl)sulfonyl)benzyl)oxy)phenyl)-N-(3-phenoxypropyl)-1H-imidazole-1-carboxamide]: the concentration for half-maximal inhibition (IC50) was less than 300 nM.

As for `O=C(NCCCOc1ccccc1)n1cnc(-c2ccc(OCc3ccc(S(=O)(=O)N4CCOCC4)cc3)cc2)c1` [AC2020601-0347, 4-(4-((4-(morpholinosulfonyl)benzyl)oxy)phenyl)-N-(3-phenoxypropyl)-1H-imidazole-1-carboxamide], the IC50 was less than 300 nM.

As to `O=C(NCCCOc1ccccc1)n1cnc(-c2ccc(OCc3ccc(NS(=O)(=O)C(F)F)cc3)cc2)c1` [AC2020601-0363, 4-(4-((4-(difluoromethylsulfonamido)benzyl)oxy)phenyl)-N-(3-phenoxypropyl)-1H-imidazole-1-carboxamide], the IC50 was less than 300 nM.

`CS(=O)(=O)c1ccc(COc2ccc(-c3cn(C(=O)NCCCOc4ccc(C#N)cc4)cn3)cc2)cc1` [AC2020601-0373, N-(3-(4-cyanophenoxy)propyl)-4-(4-(4-(methylsulfonyl)benzyloxy)phenyl)-1H-imidazole-1-carboxamide] had an IC50 of less than 300 nM.

Turning to `CS(=O)(=O)c1ccc(COc2ccc(-c3cn(C(=O)NCCCOc4ccc(S(F)(F)(F)(F)F)cc4)cn3)cc2)cc1` [AC2020601-0374], the IC50 is less than 300 nM.

Take `CS(=O)(=O)c1ccc(COc2ccc(-c3cn(C(=O)NCC4CN(Cc5ccccc5)C4)cn3)cc2)cc1` [AC2020601-0377, N-((1-benzylazetidin-3-yl)methyl)-4-(4-((4-(methylsulfonyl)benzyl)oxy)phenyl)-1H-imidazole-1-carboxamide]: the IC50 was more than 3000 nM.

The term IC50 denotes the concentration that inhibits the measured activity by half. Low readings indicate inhibition by little substance, high ones a need for much substance.
